The test deals with C-X-C chemokine receptor type 6 (Homo sapiens) (UniProt O00574). The experiment in a line: CXCR6 receptor antagonists, dose response, cell-based, beta-arrestin, DiscoveRx, APJ panel, uHTS hits (AID 624129). The conditions noted are these: CXCR6 beta-arrestin (DiscoveRx) antagonist cell assay; for outcome: CXCR6, dose range 1; for inhibition: CXCR6, run 2, dose range 1, at 79 µM (top of the series).

[1] abbreviates: CXCR6, dose range 1, mean IC50 across replicates.

In PubChem BioAssay AID624129 (Sanford-Burnham Center for Chemical Genomics, 2012) one finds outcome, IC50 and inhibition data, which are given here for 18 compounds.

Activity calls are given as the source filed them. No rule for the calls is given here.

Sequence of C-X-C chemokine receptor type 6 (Homo sapiens) (O00574 whole entry, looked up): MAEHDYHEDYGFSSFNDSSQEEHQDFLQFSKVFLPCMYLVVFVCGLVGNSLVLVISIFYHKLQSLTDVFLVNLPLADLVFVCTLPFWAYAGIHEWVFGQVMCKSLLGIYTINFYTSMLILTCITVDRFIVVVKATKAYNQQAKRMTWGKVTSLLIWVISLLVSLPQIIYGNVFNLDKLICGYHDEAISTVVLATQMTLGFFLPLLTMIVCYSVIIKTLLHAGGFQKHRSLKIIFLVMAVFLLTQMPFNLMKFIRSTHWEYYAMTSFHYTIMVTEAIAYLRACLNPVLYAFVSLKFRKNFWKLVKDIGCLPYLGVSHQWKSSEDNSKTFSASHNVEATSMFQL

Consider `CC[N+]1(C)CCC(O)(/C=C/c2ccccc2)C(C(=O)/C=C/c2ccccc2)C1` (stereo not given), for which the result was inactive and the inhibition – broadly, the change of the read-out against control, counted positive when it falls – came to 112%. Moreover, under setting [1], the IC50 (as a rule, the point on the concentration scale where inhibition reaches its midpoint) was found to be 18.2 µM. For the same compound, the IC50 (CXCR6, run 1, dose range 2) stood at 17.8 µM. Besides, the IC50 (CXCR6, run 2, dose range 2) amounted to 18.7 µM.

For the compound `O=C(NC(=S)Nc1ccccc1O)c1cncc(Br)c1`, the outcome was inactive and the inhibition was found to be 70.2%. This compound returned a concentration for half-maximal inhibition (IC50) under setting [1] of 28.4 µM. This compound also displayed a 50% inhibitory concentration (IC50) (CXCR6, run 1, dose range 2) of 24.7 µM. Under “CXCR6, run 2, dose range 2”, the IC50 was found to be 32 µM.

For the compound `CC1=CC(C)(C)N2C(=O)C(=Nc3ccc(O)cc3)c3cccc1c32`, the result was inactive and the inhibition was found to be 84%. Also, the concentration for half-maximal inhibition (IC50) under setting [1] was found to be 57.9 µM. The compound further had an IC50 (CXCR6, run 1, dose range 2) of 77.4 µM. Further, the IC50 (CXCR6, run 2, dose range 2) amounted to 38.4 µM.

For `C/C(=N\NC(=S)NCCc1ccccc1)c1ccc(Cl)cc1Cl`, the result was inactive and the inhibition came to 39.5%. Further, the 50% inhibitory concentration (IC50) under setting [1] is 11.8 µM. Further, the IC50 (CXCR6, run 1, dose range 2) turned out to be 12.4 µM. The compound also returned an IC50 (CXCR6, run 2, dose range 2) of 11.1 µM.

With `CC(=O)Nc1nc2ccccc2n1CCOc1ccccc1Cl`, the outcome was inactive and the inhibition came out at 80.9%. Further, the IC50 under setting [1] stood at 11.9 µM. For the setting “CXCR6, run 1, dose range 2”, this compound returned an IC50 of 8.79 µM. Also, the concentration for half-maximal inhibition (IC50) (CXCR6, run 2, dose range 2) is 15 µM.

For `CCOC(=O)C1=C(C)NC2=C(C(=O)CC(c3cccs3)C2)C1c1cccs1` (stereo not given), the outcome was inactive and the inhibition stood at 70.4%. Under setting [1], the IC50 was determined as 24 µM. The IC50 (CXCR6, run 1, dose range 2) stood at 26.3 µM. Besides, the half-maximal inhibitory concentration (IC50) (CXCR6, run 2, dose range 2) amounted to 21.6 µM.

For `O=C(Nc1ccccc1)c1nnsc1S(=O)c1ccc(Cl)cc1` (stereo not given), the outcome was inactive and the inhibition was 111%. Besides, the half-maximal inhibitory concentration (IC50) under setting [1] was 11.5 µM. Also, the IC50 (CXCR6, run 1, dose range 2) was determined as 11.9 µM. The compound further yielded an IC50 (CXCR6, run 2, dose range 2) of 11.2 µM.

As for `O=C(NNC(=O)c1cc(-c2ccccc2)nn1-c1ccccc1)c1ccccc1`, the result was inactive and the inhibition was 75%. The compound further gave an IC50 under setting [1] of 11.5 µM. The compound further gave a half-inhibitory concentration (IC50) (CXCR6, run 1, dose range 2) of 10.4 µM. The IC50 (CXCR6, run 2, dose range 2) was 12.6 µM.

As for `Cc1ccc(O)c(C(=O)CC(=O)c2ccc(Cl)cc2)c1`, the result was inactive and the inhibition stood at 91.8%. This compound also came in with a concentration for half-maximal inhibition (IC50) under setting [1] of 13.7 µM. Besides, the IC50 (CXCR6, run 1, dose range 2) was 10.8 µM. Where the note is “CXCR6, run 2, dose range 2”, the IC50 came to 16.5 µM.

With `O=[N+]([O-])/C=C/c1ccc2c(ccn2Cc2ccccc2)c1`, the outcome was inactive and the inhibition worked out at 111%. The IC50 under setting [1] was 11.3 µM. The same compound registered an IC50 (CXCR6, run 1, dose range 2) of 9.06 µM. Also, for the setting “CXCR6, run 2, dose range 2”, the IC50 was 13.5 µM.

On to `NC(=O)c1ccccc1NCC(=O)c1ccc(Cl)cc1`, for which the outcome was active and the inhibition is 36.4%. Under setting [1], the 50% inhibitory concentration (IC50) was 5.58 µM. Further, the IC50 (CXCR6, run 1, dose range 2) was 5.58 µM. The compound also registered a 50% inhibitory concentration (IC50) (CXCR6, run 2, dose range 2) greater than 79 µM.

Turning to `Cc1cc(O)c(-c2cc(O)c(C)cc2O)cc1O`, the result was inactive and the inhibition is 114%. Further, the IC50 under setting [1] amounted to 14 µM. The same compound gave a half-maximal inhibitory concentration (IC50) (CXCR6, run 1, dose range 2) of 13.6 µM. In addition, the IC50 (CXCR6, run 2, dose range 2) was 14.4 µM.

For `O=C1CC(Sc2nnnn2-c2ccccc2)C(=O)N1c1cccc(Cl)c1` (stereo not given), the outcome was inactive and the inhibition turned out to be 112%. Under setting [1], this compound had a concentration for half-maximal inhibition (IC50) of 11.9 µM. Further, the IC50 (CXCR6, run 1, dose range 2) was found to be 11.7 µM. The compound also displayed an IC50 (CXCR6, run 2, dose range 2) of 12.2 µM.

With `COc1cc(/C=C2\SC(=O)N(c3ccc(Cl)cc3)C2=O)cc([N+](=O)[O-])c1O`, the result was inactive and the inhibition is 88.6%. The compound further came in with an IC50 under setting [1] of 20.6 µM. In addition, where the note is “CXCR6, run 1, dose range 2”, the half-maximal inhibitory concentration (IC50) stood at 12.8 µM. In addition, the half-inhibitory concentration (IC50) (CXCR6, run 2, dose range 2) is 28.4 µM.

For the compound `COc1cc(C(=O)NCC(c2ccco2)N2CCc3ccccc3C2)cc(OC)c1OC` (stereo not given), the result was inactive and the inhibition was 72.2%. Moreover, under setting [1], the IC50 stood at 22.3 µM. This compound also returned a half-inhibitory concentration (IC50) (CXCR6, run 1, dose range 2) of 16.7 µM. For the setting “CXCR6, run 2, dose range 2”, this compound had a half-maximal inhibitory concentration (IC50) of 27.8 µM.

For the compound `COc1ccc(/C=C(/C(=O)c2cccs2)N2C=CC=CC2=C(C#N)C#N)cc1`, the result was inactive and the inhibition was 109%. For the same compound, under setting [1], the half-inhibitory concentration (IC50) turned out to be 19.9 µM. In addition, the half-maximal inhibitory concentration (IC50) (CXCR6, run 1, dose range 2) stood at 20.3 µM. The IC50 (CXCR6, run 2, dose range 2) amounted to 19.5 µM.

As for `CCN(CC)CCn1c(N)c(S(=O)(=O)c2ccccc2)c2nc3ccccc3nc21`, the outcome was inactive and the inhibition worked out at 99.2%. Under setting [1], the half-maximal inhibitory concentration (IC50) was 15.9 µM. Also, where the note is “CXCR6, run 1, dose range 2”, the IC50 came to 13.2 µM. Also, the half-maximal inhibitory concentration (IC50) (CXCR6, run 2, dose range 2) is 18.5 µM.

Regarding `Cc1ccc(NC(=O)c2nc(S(=O)(=O)Cc3ccccc3C)ncc2Cl)cc1C`, the outcome was inactive and the inhibition amounted to 104%. This compound returned a half-inhibitory concentration (IC50) under setting [1] of 13.7 µM. For the same compound, the half-inhibitory concentration (IC50) (CXCR6, run 1, dose range 2) was found to be 13 µM. Moreover, where the note is “CXCR6, run 2, dose range 2”, the concentration for half-maximal inhibition (IC50) was 14.3 µM.
